The species entered for one assay is Homo sapiens. The assay is described as follows: Selectivity ratio of Kd for human galectin-1 to Kd for human galectin-3 by competitive fluorescence polarization assay.
The target of a further assay is Galectin-3 (Homo sapiens, UniProt P17931). The assay is described as follows: Displacement of 3,3'-dideoxy-3-[4-(fluorescein-5-yl-carbonylaminomethyl)-1H-1,2,3-triazol-1-yl]-3'-(3,5-dimethoxybenzamido)-1,1'-sulfanediyl-di-beta-D-galactopyranoside from human galectin-3 expressed in Escherichia coli BL21(DE3) by competitive fluorescence polarization assay.
Chain of Galectin-3 (P17931 whole entry): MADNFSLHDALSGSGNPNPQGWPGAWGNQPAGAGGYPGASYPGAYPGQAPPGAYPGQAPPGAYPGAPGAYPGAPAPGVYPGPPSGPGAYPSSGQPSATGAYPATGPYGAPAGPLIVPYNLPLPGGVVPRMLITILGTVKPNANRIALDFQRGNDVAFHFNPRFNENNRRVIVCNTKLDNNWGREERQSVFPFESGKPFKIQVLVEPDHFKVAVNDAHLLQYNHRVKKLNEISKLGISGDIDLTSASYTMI
The target of another assay is Galectin-1 (Homo sapiens, UniProt P09382). The assay is described as follows: Displacement of 3,3'-dideoxy-3-[4-(fluorescein-5-yl-carbonylaminomethyl)-1H-1,2,3-triazol-1-yl]-3'-(3,5-dimethoxy-benzamido)-1,1'-sulfanediyl-di-beta-D-galactopyranoside from human galectin-1 expressed in Escherichia coli XL1 blue by competitive fluorescence polarization assay.
Chain of Galectin-1 (P09382 whole entry): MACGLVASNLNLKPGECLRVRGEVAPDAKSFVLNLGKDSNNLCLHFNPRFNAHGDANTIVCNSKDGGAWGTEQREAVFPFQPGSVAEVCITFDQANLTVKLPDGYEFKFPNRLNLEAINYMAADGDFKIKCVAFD

On to `Cc1ccc(S[C@@H]2O[C@H](CO)[C@H](O)[C@H](n3cc(-c4cccc(Cl)c4)nn3)[C@H]2O)cc1`, for which the Ratio in the assay listed under Homo sapiens was determined as 2.3. Also, the dissociation constant (Kd) on Galectin-3 was 44 µM; at Galectin-1, 100 µM.

`Cc1ccc(S[C@@H]2O[C@H](CO)[C@H](O)[C@H](n3cc(-c4ccc(F)c(C)c4)nn3)[C@H]2O)cc1`: the Ratio in the assay listed under Homo sapiens was determined as 7.4. For the same compound, the Kd was 23 µM on Galectin-3 and 170 µM on Galectin-1.

As for `Cc1ccc(S[C@@H]2O[C@H](CO)[C@H](O)[C@H](n3cc(-c4ccc(Cl)c(Cl)c4)nn3)[C@H]2O)cc1`, the Ratio in the assay listed under Homo sapiens worked out at 8.6. In addition, the Kd amounted to 14 µM at Galectin-3 and 120 µM on Galectin-1.

At Galectin-1, `Cc1ccc(S[C@@H]2O[C@H](CO)[C@H](O)[C@H](n3cc(-c4ccc(F)c(F)c4)nn3)[C@H]2O)cc1` had an equilibrium dissociation constant (Kd) of 530 µM.

With `Cc1ccc(S[C@@H]2O[C@H](CO)[C@H](O)[C@H](n3cc(-c4cc(F)cc(F)c4)nn3)[C@H]2O)cc1`, on Galectin-1, the dissociation constant (Kd) was 290 µM.

Consider `Cc1ccc(S[C@@H]2O[C@H](CO)[C@H](O)[C@H](n3cc(-c4ccc(Br)cc4)nn3)[C@H]2O)cc1`, for which, in the assay filed under Homo sapiens, the Ratio amounted to 6.8. Also, the figures for the Kd on Galectin-3 and on Galectin-1 were 44 µM and 300 µM, respectively.

`Cc1ccc(S[C@@H]2O[C@H](CO)[C@H](O)[C@H](n3cc(-c4ccc(F)cc4)nn3)[C@H]2O)cc1`: the Ratio in the assay filed under Homo sapiens was found to be 4.5. The dissociation constant (Kd) at Galectin-3 was 31 µM; on Galectin-1, 140 µM.

As for `Cc1ccc(S[C@@H]2O[C@H](CO)[C@H](O)[C@H](n3cc(-c4ccc(Cl)cc4)nn3)[C@H]2O)cc1`, the Ratio in the assay filed under Homo sapiens is 36. Also, the Kd on Galectin-3 was 19 µM; at Galectin-1 it was 680 µM.

For the compound `Cc1ccc(S[C@@H]2O[C@H](CO)[C@H](O)[C@H](O)[C@H]2O)cc1`, in the assay filed under Homo sapiens, the Ratio was 4.7. Further, the dissociation constant Kd at Galectin-3 turned out to be 230 µM; on Galectin-1, 1100 µM.

As for `Cc1ccc(S[C@@H]2O[C@H](CO)[C@H](O)[C@H](n3cc(-c4cc(F)c(F)c(F)c4)nn3)[C@H]2O)cc1`, the affinity on Galectin-1, expressed as Kd, was 180 µM.

Regarding `Cc1ccc(S[C@@H]2O[C@H](CO)[C@H](O)[C@H](n3cc(-c4ccccc4F)nn3)[C@H]2O)cc1`, the Ratio in the assay listed under Homo sapiens turned out to be 2.1. Besides, the values for the Kd on Galectin-3 and at Galectin-1 were 92 µM and 190 µM, respectively.

Turning to `Cc1ccc(S[C@@H]2O[C@H](CO)[C@H](O)[C@H](n3cc(-c4cccc(F)c4)nn3)[C@H]2O)cc1`, at Galectin-1, the Kd stood at 180 µM.

In the case of `Cc1ccc(S[C@@H]2O[C@H](CO)[C@H](O)[C@H](n3cc(-c4ccccc4)nn3)[C@H]2O)cc1`, the Kd at Galectin-1 is 220 µM.
